Results: PubChem BioAssay AID2060505 (Molecular Pharmacology Branch, DTP, NCI, 2025)
pIC50: −log10 of the molar value.

Test system: 633275-114-R-J1-PDC complex spheroids, viability
Test: Anticancer human tumor 633275-114-R-J1-PDC patient-derived endometrial adenocarcinoma cell line growth inhibition [GQUAD]
Details: for pIC50: curve of first compound; for viability, T/C: stronger effect = lower value
Procedure, shortened: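 Viability of tumor cells grown as complex spheroids with endothelial and stromal cells, exposed to drug combinations. Top concentration at or near clinical Cmax (else 10 microM), diluted in half-log increments.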

[1] = second compound 0.0316 µM, first compound 0.0316 µM
[2] = second compound 0.0316 µM, first compound 0.1 µM
[3] = second compound 0.0316 µM, first compound 0.316 µM
[4] = second compound 0.0316 µM, first compound 1 µM
[5] = second compound 0.0316 µM, first compound 3.16 µM
[6] = second compound 0.0316 µM, first compound 10 µM
[7] = second compound 0.1 µM, first compound 0.0316 µM
[8] = second compound 0.1 µM, first compound 0.1 µM
[9] = second compound 0.1 µM, first compound 0.316 µM
[10] = second compound 0.1 µM, first compound 1 µM
[11] = second compound 0.1 µM, first compound 3.16 µM
[12] = second compound 0.1 µM, first compound 10 µM
[13] = second compound 0.316 µM, first compound 0.0316 µM
[14] = second compound 0.316 µM, first compound 0.1 µM
[15] = second compound 0.316 µM, first compound 0.316 µM
[16] = second compound 0.316 µM, first compound 1 µM
[17] = second compound 0.316 µM, first compound 3.16 µM
[18] = second compound 0.316 µM, first compound 10 µM
[19] = second compound 1 µM, first compound 0.0316 µM
[20] = second compound 1 µM, first compound 0.1 µM
[21] = second compound 1 µM, first compound 0.316 µM
[22] = second compound 1 µM, first compound 1 µM
[23] = second compound 1 µM, first compound 3.16 µM
[24] = second compound 1 µM, first compound 10 µM
[25] = second compound 3.16 µM, first compound 0.0316 µM
[26] = second compound 3.16 µM, first compound 0.1 µM
[27] = second compound 3.16 µM, first compound 0.316 µM
[28] = second compound 3.16 µM, first compound 1 µM
[29] = second compound 3.16 µM, first compound 3.16 µM
[30] = second compound 3.16 µM, first compound 10 µM
[31] = second compound 10 µM, first compound 0.0316 µM
[32] = second compound 10 µM, first compound 0.1 µM
[33] = second compound 10 µM, first compound 0.316 µM
[34] = second compound 10 µM, first compound 1 µM
[35] = second compound 10 µM, first compound 3.16 µM
[36] = second compound 10 µM, first compound 10 µM
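Further: spheroids exposed to the agents for seven days.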
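Wherever viability, T/C is given: percent of DMSO vehicle control viability which is 100%.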

In the case of `CC1COCCN1c1cc(C2(S(C)(=N)=O)CC2)nc(-c2ccnc3[nH]ccc23)n1` (stereo unspecified) + Cc1cnc(CNC(=O)c2c(=O)c3ccc(N4CCCN(C)CC4)nc3n3c2sc2ccccc23)cn1, the pIC50 (second compound 0.0316 µM) was 5.80, the pIC50 (second compound 0.1 µM) was greater than 7.50 and the pIC50 (second compound 0.316 µM) was greater than 7.50. For the same compound, the pIC50 (second compound 1 µM) was greater than 7.50, the pIC50 (second compound 3.16 µM) was greater than 7.50 and the pIC50 (second compound 10 µM) was greater than 7.50. The viability, T/C [1] was 67.5%, the viability, T/C [2] was 64.5% and the viability, T/C [3] was 59.1%. For the same compound, the viability, T/C [4] was 49.6%, the viability, T/C [5] was 50.2% and the viability, T/C [6] was 29.7%. It also gave a viability, T/C [7] of 51.9%, a viability, T/C [8] of 47.3% and a viability, T/C [9] of 49.1%. For the same compound, the viability, T/C [10] was 41.5%, the viability, T/C [11] was 44.7% and the viability, T/C [12] was 27.4%. The viability, T/C [13] was 47.5%, the viability, T/C [14] was 46% and the viability, T/C [15] was 43.4%. For the same compound, the viability, T/C [16] was 41.1%, the viability, T/C [17] was 35.7% and the viability, T/C [18] was 24.4%. For the same compound, the viability, T/C [19] was 37.8%, the viability, T/C [20] was 40.3% and the viability, T/C [21] was 35.7%. It also gave a viability, T/C [22] of 37.8%, a viability, T/C [23] of 39% and a viability, T/C [24] of 27%. It also gave a viability, T/C [25] of 33.5%, a viability, T/C [26] of 34% and a viability, T/C [27] of 32.2%. The viability, T/C [28] was 30.6%, the viability, T/C [29] was 31.1% and the viability, T/C [30] was 22.7%. It also gave a viability, T/C [31] of 33.8%, a viability, T/C [32] of 28.8% and a viability, T/C [33] of 31.5%. The viability, T/C [34] was 29.1%, the viability, T/C [35] was 33.6% and the viability, T/C [36] was 23.9%.
Compound `COc1ccc([C@@H](O)c2cc(-c3ncnc4cc(N5CCOCC5)ccc34)c(F)cc2Cl)nn1` + Cc1cnc(CNC(=O)c2c(=O)c3ccc(N4CCCN(C)CC4)nc3n3c2sc2ccccc23)cn1 has a pIC50 (second compound 0.0316 µM) of 6.75, a pIC50 (second compound 0.1 µM) of 7.22 and a pIC50 (second compound 0.316 µM) greater than 7.50. It also gave a pIC50 (second compound 1 µM) greater than 7.50, a pIC50 (second compound 3.16 µM) greater than 7.50 and a pIC50 (second compound 10 µM) greater than 7.50. It also gave a viability, T/C [1] of 59.8%, a viability, T/C [2] of 60.3% and a viability, T/C [3] of 40.9%. It also gave a viability, T/C [4] of 29.2%, a viability, T/C [5] of 19.2% and a viability, T/C [6] of 12.2%. For the same compound, the viability, T/C [7] was 51.5%, the viability, T/C [8] was 50.5% and the viability, T/C [9] was 36.1%. It also gave a viability, T/C [10] of 25%, a viability, T/C [11] of 18.8% and a viability, T/C [12] of 11.2%. It also gave a viability, T/C [13] of 48.6%, a viability, T/C [14] of 45.7% and a viability, T/C [15] of 30.1%. The viability, T/C [16] was 24.9%, the viability, T/C [17] was 20.6% and the viability, T/C [18] was 11.9%. It also gave a viability, T/C [19] of 40.2%, a viability, T/C [20] of 37.9% and a viability, T/C [21] of 28.4%. The viability, T/C [22] was 24.6%, the viability, T/C [23] was 18.1% and the viability, T/C [24] was 11.1%. It also gave a viability, T/C [25] of 34%, a viability, T/C [26] of 29.4% and a viability, T/C [27] of 27.6%. For the same compound, the viability, T/C [28] was 21.8%, the viability, T/C [29] was 18.7% and the viability, T/C [30] was 11.5%. The viability, T/C [31] was 30.8%, the viability, T/C [32] was 27.5% and the viability, T/C [33] was 28.6%. It also gave a viability, T/C [34] of 19.9%, a viability, T/C [35] of 16% and a viability, T/C [36] of 3.93%.
Compound `O=C(c1cc(Cc2n[nH]c(=O)c3ccccc23)ccc1F)N1CCN(C(=O)C2CC2)CC1` + Cc1cnc(CNC(=O)c2c(=O)c3ccc(N4CCCN(C)CC4)nc3n3c2sc2ccccc23)cn1 has a pIC50 (second compound 0.0316 µM) of 5.00, a pIC50 (second compound 0.1 µM) of 7.36 and a pIC50 (second compound 0.316 µM) greater than 7.50. For the same compound, the pIC50 (second compound 1 µM) was greater than 7.50, the pIC50 (second compound 3.16 µM) was greater than 7.50 and the pIC50 (second compound 10 µM) was greater than 7.50. It also gave a viability, T/C [1] of 63%, a viability, T/C [2] of 60.9% and a viability, T/C [3] of 71.4%. The viability, T/C [4] was 58.2%, the viability, T/C [5] was 57.2% and the viability, T/C [6] was 50.3%. The viability, T/C [7] was 49.5%, the viability, T/C [8] was 47.9% and the viability, T/C [9] was 49.1%. The viability, T/C [10] was 48.9%, the viability, T/C [11] was 41.9% and the viability, T/C [12] was 42.8%. It also gave a viability, T/C [13] of 46.6%, a viability, T/C [14] of 42.7% and a viability, T/C [15] of 43.7%. For the same compound, the viability, T/C [16] was 38.9%, the viability, T/C [17] was 44% and the viability, T/C [18] was 33.7%. The viability, T/C [19] was 37.7%, the viability, T/C [20] was 35.3% and the viability, T/C [21] was 45.3%. It also gave a viability, T/C [22] of 42.6%, a viability, T/C [23] of 37% and a viability, T/C [24] of 35.1%. For the same compound, the viability, T/C [25] was 37.8%, the viability, T/C [26] was 38.9% and the viability, T/C [27] was 42.2%. It also gave a viability, T/C [28] of 30.9%, a viability, T/C [29] of 34.3% and a viability, T/C [30] of 31%. The viability, T/C [31] was 33.4%, the viability, T/C [32] was 31.2% and the viability, T/C [33] was 28.5%. The viability, T/C [34] was 30.9%, the viability, T/C [35] was 33.7% and the viability, T/C [36] was 29.8%.
